Laboratory results as given in PubChem BioAssay AID248 (DTP/NCI, 2004).
Where “and” joins values, the source holds several entries; their conditions need not be identical. Equal values may be shown once. Inconclusive results and toxic doses are left out.

Tested on: L1210 leukemia ip in BDF1 mice, survival T/C
Test: NCI In Vivo Anticancer Drug Screen. Data for tumor model L1210 Leukemia (intraperitoneal) in B6D2F1 (BDF1) mice
Conditions: endpoint: mean survival time, higher = longer survival
Method in brief: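 Tumor was transplanted into mice, which were then dosed with test compound or vehicle alone. Survival was recorded for each group, and the treated figure was expressed relative to the control figure.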

[1] = dose: 100.0 mg/kg/injection, schedule: Q04DX002 (ip), vehicle: Klucel (hydroxypropylcellulose) (HPC)
[2] = dose: 200.0 mg/kg/injection, schedule: Q04DX002 (ip), vehicle: Klucel (hydroxypropylcellulose) (HPC)
[3] = dose: 400.0 mg/kg/injection, schedule: Q04DX002 (ip), vehicle: Klucel (hydroxypropylcellulose) (HPC)
[4] = dose: 12.5 mg/kg/injection, schedule: Q01DX009 (ip), vehicle: Klucel (hydroxypropylcellulose) (HPC)
[5] = dose: 25.0 mg/kg/injection, schedule: Q01DX009 (ip), vehicle: Klucel (hydroxypropylcellulose) (HPC)
[6] = dose: 50.0 mg/kg/injection, schedule: Q01DX009 (ip), vehicle: Klucel (hydroxypropylcellulose) (HPC)
[7] = dose: 100.0 mg/kg/injection, schedule: Q04DX003 (ip), vehicle: Klucel (hydroxypropylcellulose) (HPC)
[8] = dose: 100.0 mg/kg/injection, schedule: Q01DX009 (ip), vehicle: Klucel (hydroxypropylcellulose) (HPC)
[9] = dose: 200.0 mg/kg/injection, schedule: Q04DX003 (ip), vehicle: Klucel (hydroxypropylcellulose) (HPC)
[10] = dose: 100.0 mg/kg/injection, schedule: Q01DX001 (ip), vehicle: saline
[11] = dose: 200.0 mg/kg/injection, schedule: Q01DX001 (ip), vehicle: saline
[12] = dose: 400.0 mg/kg/injection, schedule: Q01DX001 (ip), vehicle: saline
[13] = dose: 100.0 mg/kg/injection, schedule: Q01DX009 (ip), vehicle: saline with Tween-80

Oc1ccccc1-c1nc2ccccc2[nH]1
T/C [1]: 109 % of control | T/C [2]: 98 % of control | T/C [3]: 95 % of control

CC/C(=C\c1ccc(Cl)cc1)[N+](=O)[O-]
T/C [4]: 98 % of control | T/C [5]: 100 % of control | T/C (dose: 25.0 mg/kg/injection, schedule: Q04DX003 (ip), vehicle: Klucel (hydroxypropylcellulose) (HPC)): 100 % of control | T/C [6]: 88 % of control | T/C (dose: 50.0 mg/kg/injection, schedule: Q04DX003 (ip), vehicle: Klucel (hydroxypropylcellulose) (HPC)): 105 % of control | T/C [7]: 101 % of control and 111 % of control

O=C(/C=C/c1cccc([N+](=O)[O-])c1)NCCBr
T/C [8]: 101 % of control | T/C [7]: 95 % of control | T/C (dose: 200.0 mg/kg/injection, schedule: Q01DX009 (ip), vehicle: Klucel (hydroxypropylcellulose) (HPC)): 101 % of control | T/C [9]: 97 % of control | T/C (dose: 400.0 mg/kg/injection, schedule: Q04DX003 (ip), vehicle: Klucel (hydroxypropylcellulose) (HPC)): 95 % of control

CCNC(=O)CCCC(=O)OC
T/C [10]: 94 % of control | T/C [11]: 103 % of control | T/C [12]: 97 % of control

COC(=O)NC1CC/C=C\CCC1I (stereo unspecified)
T/C (dose: 200.0 mg/kg/injection, schedule: Q04DX002 (ip), vehicle: DMSO): 102 % of control

O=C(CCCl)NC1CC1c1ccccc1 (stereo unspecified)
T/C [13]: 90 % of control | T/C (dose: 100.0 mg/kg/injection, schedule: Q04DX003 (ip), vehicle: saline with Tween-80): 97 % of control | T/C (dose: 200.0 mg/kg/injection, schedule: Q01DX009 (ip), vehicle: saline with Tween-80): 95 % of control | T/C (dose: 200.0 mg/kg/injection, schedule: Q04DX003 (ip), vehicle: saline with Tween-80): 97 % of control | T/C (dose: 400.0 mg/kg/injection, schedule: Q01DX009 (ip), vehicle: saline with Tween-80): 94 % of control | T/C (dose: 400.0 mg/kg/injection, schedule: Q04DX003 (ip), vehicle: saline with Tween-80): 95 % of control

CCOC(=O)C(C#N)=C(C)C
T/C (dose: 75.0 mg/kg/injection, schedule: Q01DX001 (ip), vehicle: other): 103 % of control | T/C [10]: 97 % of control | T/C (dose: 100.0 mg/kg/injection, schedule: Q04DX003 (ip), vehicle: saline): 97 % of control | T/C (dose: 200.0 mg/kg/injection, schedule: Q04DX003 (ip), vehicle: saline): 94 % of control

CC1c2cc(O)c(O)cc2CCN1C (stereo unspecified)
T/C (dose: 75.0 mg/kg/injection, schedule: Q01DX001 (ip), vehicle: saline): 104 % of control | T/C (dose: 150.0 mg/kg/injection, schedule: Q01DX001 (ip), vehicle: saline): 110 % of control

O=C1C(OCc2ccccc2)=C(OCc2ccccc2)C(=O)c2ccccc21
T/C (dose: 75.0 mg/kg/injection, schedule: Q01DX001 (ip), vehicle: acetone): 91 % of control | T/C (dose: 150.0 mg/kg/injection, schedule: Q01DX001 (ip), vehicle: acetone): 94 % of control | T/C (dose: 300.0 mg/kg/injection, schedule: Q01DX001 (ip), vehicle: acetone): 90 % of control

CCCCn1cnc2c(=S)nc(N)[nH]c21
T/C (dose: 3.3 mg/kg/injection, schedule: Q01DX Z (ip), vehicle: methylcellulose (MC)): 115 % of control | T/C (dose: 5.0 mg/kg/injection, schedule: Q01DX Z (ip), vehicle: methylcellulose (MC)): 118 % of control | T/C (dose: 19.0 mg/kg/injection, schedule: Q04DX003 (ip), vehicle: saline with Tween-80): 111 % of control | T/C (dose: 66.0 mg/kg/injection, schedule: Q04DX003 (ip), vehicle: saline with Tween-80): 164 % of control

CCC(C)C1NC(=O)C(NC(=O)c2c3nc4c(C(=O)NC5C(=O)NC(C(C)CC)C(=O)N6CCCC6C(=O)N(C)CC(=O)N(C)C(C(C)C)C(=O)OC5C)cc(N)c(C)c4oc-3c(C)c(=O)c2N)C(C)OC(=O)C(C(C)C)N(C)C(=O)CN(C)C(=O)C2CCCN2C1=O (stereo unspecified)
T/C (dose: 75.0 micrograms/kg/injection, schedule: Q01DX009 (ip), vehicle: saline + alcohol): 119 % of control | T/C (dose: 100.0 micrograms/kg/injection, schedule: Q01DX009 (ip), vehicle: saline + alcohol): 121 % of control | T/C (dose: 150.0 micrograms/kg/injection, schedule: Q01DX009 (ip), vehicle: saline + alcohol): 124 % of control | T/C (dose: 300.0 micrograms/kg/injection, schedule: Q01DX009 (ip), vehicle: saline + alcohol): 105 % of control | T/C (dose: 300.0 micrograms/kg/injection, schedule: Q04DX003 (ip), vehicle: saline + alcohol): 122 % of control | T/C (dose: 400.0 micrograms/kg/injection, schedule: Q01DX009 (ip), vehicle: saline + alcohol): 86 % of control

NC(=S)N/N=C1\COC(C(F)(F)F)(C(F)(F)F)C1
T/C [4]: 100 % of control | T/C [5]: 97 % of control | T/C [6]: 96 % of control | T/C [8]: 97 % of control and 100 % of control | T/C [7]: 103 % of control | T/C [9]: 105 % of control

CC(C)(C)c1ccc(O)cc1
T/C [13]: 89 % of control

CCC(CC)NCC(C)(C)O
T/C (dose: 75.0 mg/kg/injection, schedule: Q01DX001 (ip), vehicle: acid diluted with saline): 115 % of control | T/C (dose: 150.0 mg/kg/injection, schedule: Q01DX001 (ip), vehicle: acid diluted with saline): 110 % of control

Cc1ccc(S(=O)(=O)c2ccccc2C)s1
T/C [10]: 97 % of control | T/C (dose: 100.0 mg/kg/injection, schedule: Q04DX003 (ip), vehicle: acetone): 94 % of control | T/C [11]: 98 % of control | T/C (dose: 200.0 mg/kg/injection, schedule: Q04DX003 (ip), vehicle: acetone): 98 % of control | T/C [12]: 93 % of control | T/C (dose: 400.0 mg/kg/injection, schedule: Q04DX003 (ip), vehicle: acetone): 94 % of control

FC(F)(F)c1cccc(N2N=NC3CC/C(=C\c4ccccc4)C32N2CCOCC2)c1 (stereo unspecified)
T/C [1]: 97 % of control | T/C [2]: 90 % of control | T/C [3]: 93 % of control

Cn1ncn(/N=C/c2ccc([N+](=O)[O-])o2)c1=O
T/C (dose: 12.5 mg/kg/injection, schedule: Q01DX009 (ip), vehicle: other): 91 % of control | T/C (dose: 25.0 mg/kg/injection, schedule: Q01DX009 (ip), vehicle: other): 93 % of control | T/C (dose: 50.0 mg/kg/injection, schedule: Q01DX009 (ip), vehicle: other): 91 % of control | T/C (dose: 100.0 mg/kg/injection, schedule: Q01DX009 (ip), vehicle: other): 87 % of control | T/C (dose: 200.0 mg/kg/injection, schedule: Q01DX009 (ip), vehicle: other): 87 % of control

[Cl][Sn]([CH2]c1ccccc1)([CH2]c1ccccc1)[CH2]c1ccccc1
T/C (dose: 0.39 mg/kg/injection, schedule: Q04DX002 (ip), vehicle: saline with Tween-80): 94 % of control | T/C (dose: 0.78 mg/kg/injection, schedule: Q04DX002 (ip), vehicle: saline with Tween-80): 106 % of control | T/C (dose: 1.56 mg/kg/injection, schedule: Q04DX002 (ip), vehicle: saline with Tween-80): 108 % of control | T/C (dose: 3.13 mg/kg/injection, schedule: Q04DX002 (ip), vehicle: saline with Tween-80): 108 % of control

C=CCC1CC2(C)C(CCC3C2CCC2(C)C(OC(C)=O)CCC32)CC1=O (stereo unspecified)
T/C (dose: 10.0 mg/kg/injection, schedule: Q01DX009 (ip), vehicle: gum acacia): 89 % of control | T/C (dose: 200.0 mg/kg/injection, schedule: Q01DX009 (ip), vehicle: gum acacia): 88 % of control

CCCCCC#CC(O)(C(=O)OC)c1ccccc1 (stereo unspecified)
T/C (dose: 100.0 mg/kg/injection, schedule: Q01DX001 (ip), vehicle: other): 107 % of control | T/C (dose: 200.0 mg/kg/injection, schedule: Q01DX001 (ip), vehicle: other): 107 % of control | T/C (dose: 400.0 mg/kg/injection, schedule: Q01DX001 (ip), vehicle: other): 100 % of control

Cc1ccc(S(=O)(=O)OC2C(C)(C)C(=O)C2(C)C)cc1
T/C (dose: 100.0 mg/kg/injection, schedule: Q01DX001 (ip), vehicle: carboxymethylcellulose (CMC)): 97 % of control | T/C (dose: 200.0 mg/kg/injection, schedule: Q01DX001 (ip), vehicle: carboxymethylcellulose (CMC)): 92 % of control | T/C (dose: 400.0 mg/kg/injection, schedule: Q01DX001 (ip), vehicle: carboxymethylcellulose (CMC)): 92 % of control

FC(F)(F)c1cccc(NC(=S)NC(Cc2ccccc2)c2ccccc2)c1 (stereo unspecified)
T/C (dose: 100.0 mg/kg/injection, schedule: Q04DX002 (ip), vehicle: gum acacia): 104 % of control | T/C (dose: 200.0 mg/kg/injection, schedule: Q04DX002 (ip), vehicle: gum acacia): 98 % of control | T/C (dose: 400.0 mg/kg/injection, schedule: Q04DX002 (ip), vehicle: gum acacia): 92 % of control
